We go through one molecule from ChEMBL document CHEMBL4373717, “Coumarin-containing hybrids and their anticancer activities” (Eur J Med Chem, 2019).

For one assay, the system named is MCF7. Kind of assay: Cytotoxicity against human MCF7 cells assessed as reduction in cell viability by MTT assay. The class given is functional, cell-based. The conditions noted are these: Homo sapiens, MCF7.
The nature of assay [1]: Cytotoxicity against BHK cells assessed as reduction in cell viability by MTT assay. The conditions noted are these: Cricetinae. A general note: Tetrazolium dyes change colour on reduction, which living cells bring about.

As for `CN(Cc1cnc2nc(N)nc(N)c2n1)c1ccc(C(=O)N[C@@H](CCC(=O)O)C(=O)O)cc1` [METHOTREXATE], the IC50 (as a rule, the concentration that inhibits the measured activity by half) with MCF7 stood at 27.1 µM; in assay [1], 150 µM.
